The text below walks through data of patent US8735417B2, “Aminopyrimidines as Syk inhibitors” (Merck Sharp & Dohme Corp., priority 2009, dated 2014).

This assay concerns the target T1, recombinant human GST-SYK (Homo sapiens, UniProt P43405).
T1 construct: purchased Carna Biosciences 08-176
As to the kind of experiment: Homogeneous Time-Resolved Fluorescence (HTRF) assay for the recombinant human SYK enzyme. The assay is classed as biochemical. The following applies: recombinant human GST-SYK 5 pM, ATP 25 μM, 10-dose titration; read-out: rhSYK Activity (IC50). Here is the method: Homogeneous Time-Resolved Fluorescence (HTRF) Assay for the Recombinant Human SYK Enzyme:
A recombinant GST-hSYK fusion protein was used to measure potency of compounds to inhibit human SYK activity. The recombinant human GST-SYK (Carna Biosciences #08-176) (5 pM final concentration) was incubated with various concentrations of the inhibitor diluted in DMSO (0.1% final concentration) for 10 minutes at room temperature in 15 mM Tris-HCl (pH 7.5), 0.01% tween 20, 2 mM DTT in 384 well plate format. To initiate the reaction the biotinylated substrate peptide (250 nM final concentration) that contains the phosphorylation site for SYK was added with magnesium (5 mM final concentration) and ATP (25 μM final concentration). Final volume of the reaction was 10 μL. Phosphorylation of the peptide was allowed to proceed for 45′ at room temperature. To quench the reaction and detect the phosphorylated product, 2 nM of a Europium-atiti-phosphotyrosine antibody (Perkin Elmer #AD0161) and 70 nM SA-APC (Perkin-Elmer #CR130-100) were added together in 15 mM Tris pH 7.5, 40 mM EDTA, 0.01% tween 20. Final volume of the quenching solution was 10 μL. The resulting HTRF signal was measured after 30 minutes on a EnVision (Perkin-Elmer) reader using a time-resolved fluorescence protocol.
In general terms: TR-FRET usually uses a lanthanide donor and a delayed reading to cut background.
As usually defined, the IC50 is the point on the concentration scale where inhibition reaches its midpoint. On to `Cc1ccnc(Nc2cccc(-c3cnc(N4CCC(C(=O)O)CC4)s3)c2)n1` [Example 193, 1-(5-{3-[(4-methylpyrimidin-2-yl)amino]phenyl}-1,3-thiazol-2-yl)piperidine-4-carboxylic acid], for which the IC50 lay in the range of 100 to 1000 nM.

With `OCCC1CCCN(c2ncc(-c3cccc(Nc4nccc(C(F)(F)F)n4)c3)s2)C1` (stereo not shown) [Example 142], the IC50 was not above 100 nM.

For `OC1COCC1Nc1ncc(-c2cccc(Nc3nccc(C(F)(F)F)n3)c2)s1` (stereo not shown) [Example 12], the IC50 is not above 100 nM.

Take `CCOCCNc1ncc(-c2cccc(Nc3nccc(C(F)(F)F)n3)c2)s1` [Example 34]: the IC50 was not above 100 nM.

`Cc1cc(Nc2nccc(SCCO)n2)cc(-c2cnc(N3CCCNC(=O)C3)s2)c1` [Example 222, 4-{5-[3-({4-[(2-hydroxyethyl)sulfanyl]pyrimidin-2-yl}amino)-5-methylphenyl]-1,3-thiazol-2-yl}-1,4-diazepan-2-one]: the IC50 was not above 100 nM.

`FC(F)(F)c1ccnc(Nc2cccc(-c3cnc(N4CCOCC4)s3)c2)n1` [Example 119]: the IC50 was not above 100 nM.

On to `CCSc1ccnc(Nc2cc(C)cc(-c3cnc(N4CCCNC(=O)C4)s3)c2)n1` [Example 221], for which the IC50 is not above 100 nM.

With `Cc1cc(Nc2nccc(C(F)(F)F)n2)cc(-c2sc(N3CCCNC(=O)C3)nc2Cl)c1` [Example 228, 4-[4-chloro-5-(3-methyl-5-{[4-(trifluoromethyl)pyrimidin-2-yl]amino}phenyl)-1,3-thiazol-2-yl]-1,4-diazepan-2-one], the IC50 is not above 100 nM.

Turning to `Cc1cc(Nc2nccc([S+](C)[O-])n2)cc(-c2cnc(N3CCCNC(=O)C3)s2)c1` (stereo not shown) [Example 223, 4-[5-(3-methyl-5-{[4-(methylsulfinyl)pyrimidin-2-yl]amino}phenyl)-1,3-thiazol-2-yl]-1,4-diazepan-2-one], the IC50 was not above 100 nM.

For the compound `CC(C)(O)CNc1ncc(-c2cccc(Nc3nccc(C(F)(F)F)n3)c2)s1` [Example 29], the IC50 is not above 100 nM.

As for `FC(F)(F)c1ccnc(Nc2cccc(-c3cnc(NCc4cncnc4)s3)c2)n1` [Example 31], the IC50 was not above 100 nM.

For `CC(=O)Nc1cc(Nc2nccc(C(F)(F)F)n2)cc(-c2cnc(N3CCCNC(=O)C3)s2)c1` [Example 184, N-(3-[2-(3-oxo-1,4-diazepan-1-yl)-1,3-thiazol-5-yl]-5-{[4-(trifluoromethyl)pyrimidin-2-yl]amino}phenyl)acetamide], the 50% inhibitory concentration (IC50) was not above 100 nM.

With `CN(Cc1ccccc1)c1ncc(-c2cccc(Nc3nccc(C(F)(F)F)n3)c2)s1` [Example 48], the IC50 lay in the range of 100 to 1000 nM.

Regarding `Cc1cc(Nc2nccc(C(F)(F)F)n2)cc(-c2cnc(N3CCN(C(=O)c4ccc5cc[nH]c5c4)CC3)s2)c1` [Example 128], the IC50 is not above 100 nM.

With `Cc1cc(Nc2nccc(C(F)(F)F)n2)cc(-c2cnc(NCCC3(O)CCN(C)CC3)s2)c1` [Example 116], the IC50 is not above 100 nM.

Regarding `FC(F)(F)c1ccnc(Nc2cccc(-c3cnc(NCc4c[nH]nc4-c4ccccc4)s3)c2)n1` [Example 78], the IC50 is 100 to 1000 nM.

For `CC1C(=O)NCCN1c1ncc(-c2cccc(Nc3nccc(C(F)(F)F)n3)c2)s1` (stereo not shown) [Example 124], the IC50 was not above 100 nM.

Regarding `Cc1cc(Nc2nccc(C(F)(F)F)n2)cc(-c2cnc(NCc3cc(C)on3)s2)c1` [Example 97], the IC50 was not above 100 nM.

For the compound `Cc1cc(Nc2nccc(OC3CCOC3)n2)cc(-c2cnc(N3CCCNC(=O)C3)s2)c1` (stereo not shown) [Example 214], the IC50 was not above 100 nM.

Take `C[C@@H](Nc1ncc(-c2cccc(Nc3nccc(C(F)(F)F)n3)c2)s1)C1CCCCC1` [Example 65]: the IC50 lay within 1000 to 10000 nM.

`OC1(CCNc2ncc(-c3cccc(Nc4nccc(C(F)(F)F)n4)c3)s2)CCCC1` [Example 17]: the IC50 is not above 100 nM.

Turning to `O=C(O)c1cccc(N2CCN(c3ncc(-c4cccc(Nc5nccc(C(F)(F)F)n5)c4)s3)CC2)c1` [Example 125], the IC50 is not above 100 nM.

Regarding `Cc1cc(Nc2nccc(C(F)(F)F)n2)cc(-c2cnc(N(C)Cc3nc4ccccc4o3)s2)c1` [Example 102], the half-maximal inhibitory concentration (IC50) fell in the range of 100 to 1000 nM.

Take `Cc1cc(Nc2nccc(C(F)(F)F)n2)cc(-c2cnc(NCc3cn4ccccc4n3)s2)c1` [Example 89]: the IC50 was 100 to 1000 nM.

In the case of `Cc1cc(Nc2nccc(C(F)(F)F)n2)cc(-c2cnc(N(C)Cc3cnn(C)c3)s2)c1` [Example 101], the IC50 was not above 100 nM.

Consider `Cc1cc(Nc2nccc(C(F)(F)F)n2)cc(-c2cnc(N3CCC(OCC(=O)NC(C)(C)C)CC3)s2)c1` [Example 145], for which the IC50 was in the range of 1000 to 10000 nM.

For `C=CCOC(=O)N1CCN(c2ncc(-c3cccc(Nc4nccc(C(F)(F)F)n4)c3)s2)C(CO)C1` (stereo not shown) [Example 126], the IC50 lay in the range of 100 to 1000 nM.

In the case of `OCCC1(c2ccc(Cl)cc2)CCN(c2ncc(-c3cccc(Nc4nccc(C(F)(F)F)n4)c3)s2)C1` (stereo not shown) [Example 160], the IC50 is 1000 to 10000 nM.

Regarding `CC(=O)Nc1cc(Nc2nccc(C(F)(F)F)n2)cc(-c2cnc(N(C)CCO)s2)c1` [Example 186], the IC50 was not above 100 nM.

Take `CC(C)C(CO)Nc1ncc(-c2cccc(Nc3nccc(C(F)(F)F)n3)c2)s1` (stereo not shown) [Example 20]: the IC50 was not above 100 nM.

Take `Cc1cc(Nc2nccc(C(F)(F)F)n2)cc(-c2cnc(N3CCN4CCCC4C3)s2)c1` (stereo not shown) [Example 172]: the IC50 is not above 100 nM.

Take `COc1ccnc(Nc2cc(C)cc(-c3sc(N4CCCNC(=O)C4)nc3Cl)c2)n1` [Example 227, 4-(4-chloro-5-{3-[(4-methoxypyrimidin-2-yl)amino]-5-methylphenyl}-1,3-thiazol-2-yl)-1,4-diazepan-2-one]: the IC50 was not above 100 nM.

As to `CN(CC(O)c1ccccc1)c1ncc(-c2cccc(Nc3nccc(C(F)(F)F)n3)c2)s1` (stereo not shown) [Example 7], the IC50 was not above 100 nM.

`Cc1cc(Nc2nccc(C(F)(F)F)n2)cc(-c2cnc(NCC(O)c3ccncc3)s2)c1` (stereo not shown) [Example 117]: the IC50 was 100 to 1000 nM.

As for `O=C1CCN(c2ncc(-c3cccc(Nc4nccc(C(F)(F)F)n4)c3)s2)CCN1` [Example 168], the IC50 was not above 100 nM.

`OCCCNc1ncc(-c2cccc(Nc3nccc(C(F)(F)F)n3)c2)s1` [Example 15]: the IC50 is not above 100 nM.

As for `FC(F)(F)c1ccnc(Nc2cccc(-c3cnc(NCCc4cccs4)s3)c2)n1` [Example 40], the IC50 lay within 100 to 1000 nM.

For `Cc1cc(Nc2nccc(C3CCCC3)n2)cc(-c2cnc(N3CCCNC(=O)C3)s2)c1` [Example 197, 4-(5-{3-[(4-cyclopentylpyrimidin-2-yl)amino]-5-methylphenyl}-1,3-thiazol-2-yl)-1,4-diazepan-2-one], the IC50 was not above 100 nM.

For the compound `CCC(O)CNc1ncc(-c2cccc(Nc3nccc(C(F)(F)F)n3)c2)s1` (stereo not shown) [Example 9], the IC50 was not above 100 nM.

Turning to `O=C1CCCN1CCNc1ncc(-c2cccc(Nc3nccc(C(F)(F)F)n3)c2)s1` [Example 51], the IC50 is not above 100 nM.

As to `OCCCCNc1ncc(-c2cccc(Nc3nccc(C(F)(F)F)n3)c2)s1` [Example 18], the IC50 is not above 100 nM.

As for `FC(F)(F)c1ccnc(Nc2cccc(-c3cnc(N4CCCC4c4ccccc4)s3)c2)n1` (stereo not shown) [Example 161], the IC50 was 100 to 1000 nM.

`O=C1CN(c2ncc(-c3cccc(Nc4nccc(C(F)(F)F)n4)c3)s2)CCCN1` [Example 166]: the IC50 is not above 100 nM.

Regarding `Cc1ccnc(Nc2cccc(-c3csc(N4CCC(C(=O)O)CC4)n3)c2)n1` [Example 231, 1-(4-{3-[(4-methylpyrimidin-2-yl)amino]phenyl}-1,3-thiazol-2-yl)piperidine-4-carboxylic acid], the IC50 fell in the range of 100 to 1000 nM.

`CCC(C)Nc1ncc(-c2cccc(Nc3nccc(C(F)(F)F)n3)c2)s1` (stereo not shown) [Example 42]: the IC50 is not above 100 nM.

Turning to `OCC(CO)Nc1ncc(-c2cccc(Nc3nccc(C(F)(F)F)n3)c2)s1` [Example 11], the IC50 is not above 100 nM.

As for `O=C1CN(c2ncc(-c3cccc(Nc4nccc(C(F)(F)F)n4)c3)s2)CCN1` [Example 123], the IC50 lay within 1000 to 10000 nM.

In the case of `CN(CCO)c1ncc(-c2cccc(Nc3nccc(C(F)(F)F)n3)c2)s1` [Example 4], the IC50 was not above 100 nM.

Regarding `Cc1cc(Nc2nccc(C(F)(F)F)n2)cc(-c2cnc(N3CCC(c4ccc(S(C)(=O)=O)cc4)CC3)s2)c1` [Example 146], the IC50 was 1000 to 10000 nM.

As for `FC(F)CNc1ncc(-c2cccc(Nc3nccc(C(F)(F)F)n3)c2)s1` [Example 38], the IC50 was not above 100 nM.

With `Cc1cc(Nc2nccc(C(F)(F)F)n2)cc(-c2cnc(N3CCCNC(=O)C3)s2)c1` [Example 226, 4-[5-(3-methyl-5-{[4-(trifluoromethyl)pyrimidin-2-yl]amino}phenyl)-1,3-thiazol-2-yl]-1,4-diazepan-2-one], the IC50 was not above 100 nM.

Take `Cc1cc(Nc2nccc(C(F)(F)F)n2)cc(-c2cnc(NCc3cnn(C)c3)s2)c1` [Example 100]: the IC50 is not above 100 nM.

Consider `CC(CO)Nc1ncc(-c2cccc(Nc3nccc(C(F)(F)F)n3)c2)s1` (stereo not shown) [Example 32], for which the IC50 is not above 100 nM.

On to `CSCCC(CO)Nc1ncc(-c2cccc(Nc3nccc(C(F)(F)F)n3)c2)s1` (stereo not shown) [Example 80], for which the IC50 is not above 100 nM.

Take `Cc1cc(Nc2nccc(C3CC3)n2)cc(-c2cnc(N3CCCNC(=O)C3)s2)c1` [Example 198, 4-(5-{3-[(4-cyclopropylpyrimidin-2-yl)amino]-5-methyphenyl}-1,3-thiazol-2-yl)-1,4-diazepan-2-one]: the IC50 was not above 100 nM.
